This note sets out measurements from BindingDB's records for PubMed 33548635 (University of Aveiro, 2021).

pIC50: −log10 of the molar value.

For assay [1], the target named is T1, Amyloid-beta precursor protein (Homo sapiens, UniProt P05067). Put plainly: Inhibition of amyloid beta 42 secretion transfected in human H4 cells incubated for 20 to 24 hrs by LPECL assay.
The target of assay [2] is T1, Amyloid-beta precursor protein. Description: Inhibition of amyloid beta 40 secretion transfected in human H4 cells incubated for 20 to 24 hrs by LPECL assay.

T1 sequence (P05067 whole entry): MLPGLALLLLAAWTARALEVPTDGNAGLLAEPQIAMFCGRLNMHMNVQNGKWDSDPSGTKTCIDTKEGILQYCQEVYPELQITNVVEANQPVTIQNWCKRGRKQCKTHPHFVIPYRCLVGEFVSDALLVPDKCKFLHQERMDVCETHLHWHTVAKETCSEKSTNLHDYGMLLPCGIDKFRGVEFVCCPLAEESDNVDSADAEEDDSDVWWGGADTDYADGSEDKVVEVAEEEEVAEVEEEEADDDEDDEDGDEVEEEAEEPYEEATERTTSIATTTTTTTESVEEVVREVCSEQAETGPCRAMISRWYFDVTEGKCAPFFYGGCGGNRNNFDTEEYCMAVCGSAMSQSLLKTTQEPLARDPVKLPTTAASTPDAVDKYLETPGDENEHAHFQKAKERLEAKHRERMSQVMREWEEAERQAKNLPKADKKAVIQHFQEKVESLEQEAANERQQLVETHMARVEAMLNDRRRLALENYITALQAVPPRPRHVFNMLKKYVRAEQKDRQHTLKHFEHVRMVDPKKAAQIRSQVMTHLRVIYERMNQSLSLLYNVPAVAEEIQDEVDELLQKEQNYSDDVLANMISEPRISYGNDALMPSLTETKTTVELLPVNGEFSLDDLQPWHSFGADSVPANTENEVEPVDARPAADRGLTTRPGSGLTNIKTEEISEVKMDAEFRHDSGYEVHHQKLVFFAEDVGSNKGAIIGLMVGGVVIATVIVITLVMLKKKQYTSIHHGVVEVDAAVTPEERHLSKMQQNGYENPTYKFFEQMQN

Consider `COc1cc(/C=C/c2cc(/C=C/c3ccc(OCC(=O)OC(C)(C)C)c(OC)c3)on2)ccc1OCC(=O)OC(C)(C)C`, for which the pIC50 in assay [1] and in assay [2] was below 4.40 each time.
Consider `COc1cc(/C=C/c2cc(/C=C/c3ccc(O)c(OC)c3)n(C)n2)ccc1O`, for which the pIC50 in assay [1] was 5.05; in assay [2], 4.98.
Taken in the same sequence, the figures for `COc1cc(/C=C/c2cc(/C=C/c3ccc(OCC(=O)O)c(OC)c3)on2)ccc1OCC(=O)O` were below 4.40 and 4.85.
In the case of `COc1cc(/C=C/c2cc(/C=C/c3ccc(O)c(OC)c3)n(Cc3ccccc3)n2)ccc1O`, the results for the pIC50 in assay [1] and in assay [2] were 4.82 and 4.94, respectively.
Turning to `COc1cc(/C=C/c2cc(/C=C/c3ccc(O)c(OC)c3)on2)ccc1O` [4-((E)-2-{3-[(E)-2-(4-hydroxy-3-methoxyphenyl)vinyl]isoxazol-5-yl}vinyl)-2-methoxyphenol], the pIC50 in assay [1] was 5.17; in assay [2], 5.13.
Turning to `COc1cc(/C=C/c2cc(/C=C/c3ccc(O)c(OC)c3)n(-c3ccc(C(C)C)cc3)n2)ccc1O`, the pIC50 was 5.36 in assay [1] and 5.16 in assay [2].
For the molecule `COc1cc(/C=C/c2cc(/C=C/c3ccc(O)c(OC)c3)n(-c3cccc([N+](=O)[O-])c3)n2)ccc1O`, the pIC50 is 4.85 in assay [1] and 4.82 in assay [2].
Take `COc1cc(/C=C/c2cc(/C=C/c3ccc(O)c(OC)c3)n(-c3ccccc3)n2)ccc1O`: the pIC50 in assay [1] is 4.85; in assay [2], 4.95.
Turning to `COc1cc(/C=C/c2cc(/C=C/c3ccc(O)c(OC)c3)[nH]n2)ccc1O` [4-(2-(5-(4-hydroxy-3-methoxystyryl)-1H-pyrazol-3-yl)vinyl)-2-methoxyphenol], the pIC50 is 5.06 in assay [1] and 5.01 in assay [2].
As for `COc1cc(/C=C/c2cc(/C=C/c3ccc(O)c(OC)c3)n(CCO)n2)ccc1O`, the pIC50 in assay [1] was 4.76; in assay [2], 4.75.
The molecule `COc1cc(/C=C/c2cc(/C=C/c3ccc(O)c(OC)c3)n(-c3ccc([N+](=O)[O-])cc3)n2)ccc1O` had a pIC50 in assay [2] of 5.21.
`COc1cc(/C=C/c2cc(/C=C/c3ccc(O)c(OC)c3)n(-c3ccc(Cl)nn3)n2)ccc1O`: the pIC50 was 5.32 in assay [1] and 5.27 in assay [2].
For the molecule `COc1cc(/C=C/c2cc(/C=C/c3ccc(O)c(OC)c3)n(-c3ccc(C)cc3)n2)ccc1O`, the pIC50 in assay [1] is 5.30; in assay [2], 5.06.
Consider `COc1cc(/C=C/c2cc(/C=C/c3ccc(O)c(OC)c3)n(-c3cc(Cl)cc(Cl)c3)n2)ccc1O`, for which the pIC50 in assay [1] is 5.46; in assay [2], 5.20.
